Data taken from PubChem BioAssay AID1963829 (Molecular Pharmacology Branch, DTP, NCI, 2024).

Tested on: 935938-334-R-J1-PDC complex spheroid viability
Test: Anticancer human tumor 935938-334-R-J1-PDC patient-derived small intestine adenocarcinoma cell line growth inhibition [POLQ]
Settings: for IC50: curve of first compound; for viability, T/C: stronger effect = lower value
Procedure, shortened: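 Three-cell-type spheroids modelling solid tumor plus stroma served as the readout system; POL inhibitors were tested individually and in combination, concentration ranges set by clinical Cmax where known.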

[1] = second compound 0.0316 µM, first compound 0.0316 µM
[2] = second compound 0.0316 µM, first compound 0.1 µM
[3] = second compound 0.0316 µM, first compound 0.316 µM
[4] = second compound 0.0316 µM, first compound 1 µM
[5] = second compound 0.0316 µM, first compound 3.16 µM
[6] = second compound 0.0316 µM, first compound 10 µM
[7] = second compound 0.1 µM, first compound 0.0316 µM
[8] = second compound 0.1 µM, first compound 0.1 µM
[9] = second compound 0.1 µM, first compound 0.316 µM
[10] = second compound 0.1 µM, first compound 1 µM
[11] = second compound 0.1 µM, first compound 3.16 µM
[12] = second compound 0.1 µM, first compound 10 µM
[13] = second compound 0.316 µM, first compound 0.0316 µM
[14] = second compound 0.316 µM, first compound 0.1 µM
[15] = second compound 0.316 µM, first compound 0.316 µM
[16] = second compound 0.316 µM, first compound 1 µM
[17] = second compound 0.316 µM, first compound 3.16 µM
[18] = second compound 0.316 µM, first compound 10 µM
[19] = second compound 1 µM, first compound 0.0316 µM
[20] = second compound 1 µM, first compound 0.1 µM
[21] = second compound 1 µM, first compound 0.316 µM
[22] = second compound 1 µM, first compound 1 µM
[23] = second compound 1 µM, first compound 3.16 µM
[24] = second compound 1 µM, first compound 10 µM
[25] = second compound 3.16 µM, first compound 0.0316 µM
[26] = second compound 3.16 µM, first compound 0.1 µM
[27] = second compound 3.16 µM, first compound 0.316 µM
[28] = second compound 3.16 µM, first compound 1 µM
[29] = second compound 3.16 µM, first compound 3.16 µM
[30] = second compound 3.16 µM, first compound 10 µM
[31] = second compound 10 µM, first compound 0.0316 µM
[32] = second compound 10 µM, first compound 0.1 µM
[33] = second compound 10 µM, first compound 0.316 µM
[34] = second compound 10 µM, first compound 1 µM
[35] = second compound 10 µM, first compound 3.16 µM
[36] = second compound 10 µM, first compound 10 µM
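Further: spheroids exposed to drugs for seven days before viability read.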
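Wherever viability, T/C is given: 100% = DMSO vehicle control wells.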

CC1COCCN1c1cc(-c2ccnn2C)c2ccnc(-c3ccn[nH]3)c2n1 (stereo not drawn) + Cc1cccc(N(C)C(=O)C2C(O)CCN2c2nc(C)cc(C(F)(F)F)c2C#N)c1
IC50 (second compound 0.0316 µM): 108 nM
IC50 (second compound 0.1 µM): 97.8 nM
IC50 (second compound 0.316 µM): 107 nM
IC50 (second compound 1 µM): 125 nM
IC50 (second compound 3.16 µM): 114 nM
IC50 (second compound 10 µM): 113 nM
viability, T/C [1]: 93.5%
viability, T/C [2]: 52.1%
viability, T/C [3]: 20.2%
viability, T/C [4]: 17.5%
viability, T/C [5]: 20.1%
viability, T/C [6]: 22%
viability, T/C [7]: 105%
viability, T/C [8]: 48.6%
viability, T/C [9]: 29.4%
viability, T/C [10]: 20.7%
viability, T/C [11]: 18.7%
viability, T/C [12]: 23.3%
viability, T/C [13]: 79.2%
viability, T/C [14]: 51.7%
viability, T/C [15]: 23.6%
viability, T/C [16]: 17.7%
viability, T/C [17]: 18.9%
viability, T/C [18]: 20.8%
viability, T/C [19]: 90.2%
viability, T/C [20]: 54.9%
viability, T/C [21]: 29.8%
viability, T/C [22]: 16.4%
viability, T/C [23]: 21.9%
viability, T/C [24]: 22%
viability, T/C [25]: 83.3%
viability, T/C [26]: 53.4%
viability, T/C [27]: 23.5%
viability, T/C [28]: 17.2%
viability, T/C [29]: 18.5%
viability, T/C [30]: 23%
viability, T/C [31]: 86%
viability, T/C [32]: 51.9%
viability, T/C [33]: 32.1%
viability, T/C [34]: 18.4%
viability, T/C [35]: 22.6%
viability, T/C [36]: 22.8%

CC1COCCN1c1cc(C2(S(C)(=N)=O)CC2)nc(-c2ccnc3[nH]ccc23)n1 (stereo not drawn) + Cc1cccc(N(C)C(=O)C2C(O)CCN2c2nc(C)cc(C(F)(F)F)c2C#N)c1
IC50 (second compound 0.0316 µM): 2890 nM
IC50 (second compound 0.1 µM): 3050 nM
IC50 (second compound 0.316 µM): 2440 nM
IC50 (second compound 1 µM): 2520 nM
IC50 (second compound 3.16 µM): 1570 nM
IC50 (second compound 10 µM): 2000 nM
viability, T/C [1]: 116%
viability, T/C [2]: 91.8%
viability, T/C [3]: 91.4%
viability, T/C [4]: 96.2%
viability, T/C [5]: 46.1%
viability, T/C [6]: 21.4%
viability, T/C [7]: 113%
viability, T/C [8]: 109%
viability, T/C [9]: 86.1%
viability, T/C [10]: 84.5%
viability, T/C [11]: 44.6%
viability, T/C [12]: 20.2%
viability, T/C [13]: 82.6%
viability, T/C [14]: 110%
viability, T/C [15]: 69.1%
viability, T/C [16]: 88.1%
viability, T/C [17]: 38.9%
viability, T/C [18]: 19.9%
viability, T/C [19]: 110%
viability, T/C [20]: 89%
viability, T/C [21]: 97.6%
viability, T/C [22]: 70.1%
viability, T/C [23]: 44.4%
viability, T/C [24]: 21.8%
viability, T/C [25]: 97.7%
viability, T/C [26]: 112%
viability, T/C [27]: 72.3%
viability, T/C [28]: 62.9%
viability, T/C [29]: 36.4%
viability, T/C [30]: 23.5%
viability, T/C [31]: 116%
viability, T/C [32]: 104%
viability, T/C [33]: 117%
viability, T/C [34]: 68%
viability, T/C [35]: 41.2%
viability, T/C [36]: 20.1%

CCCS(=O)(=O)Nc1ccc(F)c(C(=O)c2c[nH]c3ncc(-c4ccc(Cl)cc4)cc23)c1F + Cc1cccc(N(C)C(=O)C2C(O)CCN2c2nc(C)cc(C(F)(F)F)c2C#N)c1
IC50 (second compound 0.0316 µM): > 10000 nM
IC50 (second compound 0.1 µM): 9270 nM
IC50 (second compound 0.316 µM): 9180 nM
IC50 (second compound 1 µM): 9750 nM
IC50 (second compound 3.16 µM): > 10000 nM
IC50 (second compound 10 µM): 9010 nM
viability, T/C [1]: 85.3%
viability, T/C [2]: 97.4%
viability, T/C [3]: 117%
viability, T/C [4]: 147%
viability, T/C [5]: 146%
viability, T/C [6]: 51%
viability, T/C [7]: 114%
viability, T/C [8]: 119%
viability, T/C [9]: 166%
viability, T/C [10]: 121%
viability, T/C [11]: 112%
viability, T/C [12]: 45%
viability, T/C [13]: 97.4%
viability, T/C [14]: 115%
viability, T/C [15]: 119%
viability, T/C [16]: 120%
viability, T/C [17]: 120%
viability, T/C [18]: 44.8%
viability, T/C [19]: 95.7%
viability, T/C [20]: 125%
viability, T/C [21]: 121%
viability, T/C [22]: 148%
viability, T/C [23]: 131%
viability, T/C [24]: 48.2%
viability, T/C [25]: 88.9%
viability, T/C [26]: 108%
viability, T/C [27]: 123%
viability, T/C [28]: 151%
viability, T/C [29]: 113%
viability, T/C [30]: 51.4%
viability, T/C [31]: 106%
viability, T/C [32]: 109%
viability, T/C [33]: 127%
viability, T/C [34]: 146%
viability, T/C [35]: 149%
viability, T/C [36]: 42.1%

Cn1ncnc1[C@H]1c2n[nH]c(=O)c3cc(F)cc(c23)N[C@@H]1c1ccc(F)cc1 + Cc1cccc(N(C)C(=O)C2C(O)CCN2c2nc(C)cc(C(F)(F)F)c2C#N)c1
IC50 (second compound 0.0316 µM): > 100 nM
IC50 (second compound 0.1 µM): > 100 nM
IC50 (second compound 0.316 µM): > 100 nM
IC50 (second compound 1 µM): > 100 nM
IC50 (second compound 3.16 µM): > 100 nM
IC50 (second compound 10 µM): > 100 nM
viability, T/C (second compound 0.0316 µM, first compound 0.000316 µM): 143%
viability, T/C (second compound 0.0316 µM, first compound 0.001 µM): 88.6%
viability, T/C (second compound 0.0316 µM, first compound 0.00316 µM): 102%
viability, T/C (second compound 0.0316 µM, first compound 0.01 µM): 94.5%
viability, T/C [1]: 97.8%
viability, T/C [2]: 102%
viability, T/C (second compound 0.1 µM, first compound 0.000316 µM): 85.5%
viability, T/C (second compound 0.1 µM, first compound 0.001 µM): 91.3%
viability, T/C (second compound 0.1 µM, first compound 0.00316 µM): 107%
viability, T/C (second compound 0.1 µM, first compound 0.01 µM): 143%
viability, T/C [7]: 111%
viability, T/C [8]: 70%
viability, T/C (second compound 0.316 µM, first compound 0.000316 µM): 108%
viability, T/C (second compound 0.316 µM, first compound 0.001 µM): 107%
viability, T/C (second compound 0.316 µM, first compound 0.00316 µM): 80.5%
viability, T/C (second compound 0.316 µM, first compound 0.01 µM): 108%
viability, T/C [13]: 91%
viability, T/C [14]: 83.4%
viability, T/C (second compound 1 µM, first compound 0.000316 µM): 89.8%
viability, T/C (second compound 1 µM, first compound 0.001 µM): 99.6%
viability, T/C (second compound 1 µM, first compound 0.00316 µM): 97.7%
viability, T/C (second compound 1 µM, first compound 0.01 µM): 82.1%
viability, T/C [19]: 114%
viability, T/C [20]: 60.4%
viability, T/C (second compound 3.16 µM, first compound 0.000316 µM): 125%
viability, T/C (second compound 3.16 µM, first compound 0.001 µM): 80.8%
viability, T/C (second compound 3.16 µM, first compound 0.00316 µM): 105%
viability, T/C (second compound 3.16 µM, first compound 0.01 µM): 88.5%
viability, T/C [25]: 89.9%
viability, T/C [26]: 89.6%
viability, T/C (second compound 10 µM, first compound 0.000316 µM): 103%
viability, T/C (second compound 10 µM, first compound 0.001 µM): 87.5%
viability, T/C (second compound 10 µM, first compound 0.00316 µM): 77.6%
viability, T/C (second compound 10 µM, first compound 0.01 µM): 118%
viability, T/C [31]: 87.9%
viability, T/C [32]: 89%
